Type in all cases: in vivo
The subject of assay [1] is Pyricularia oryzae (rice blast). As to the kind of experiment: whole plant or invertebrate. Particulars: for pest or weed control at 400 ppm: Pyricularia oryzae, foliar, read-out: RICE BLAST, Test 1, foliar spray on rice, disease control rating at 400 ppm / 100 ppm.
Assay [2] has as its system Erysiphe graminis tritici (powdery mildew). Briefly: Test 1 greenhouse foliar spray screen, powdery mildew on wheat. To be noted: Blumeria graminis, foliar, Test 1, foliar spray on wheat; disease control rating at 400 ppm / 100 ppm; read-out: POWD MDEW.
The test system of assay [3] is Twospotted spider mites (Tetranychus urticae Koch). Briefly: Mite/insect screen, SM. Particulars: for mortality at 200 ppm / mortality at 400 ppm: Tetranychus urticae, foliar, read-out: SM RESULTS %; for activity as miticides: summary statement in the description. The essentials: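 Compounds dissolved in 50:50 acetone/alcohol containing sulfonate/nonionic emulsifier blends, then diluted with water to the indicated concentrations. Leaves sprayed on both surfaces to runoff at 10 psi and dried one hour. Percent mortality scored after standard exposure periods.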

The test system of assay [4] is Pseudoperonospora cubensis (downy mildew). Briefly: Test 1 greenhouse foliar spray screen, downy mildew on squash. Particulars: for pest or weed control at 400 ppm: Pseudoperonospora cubensis, foliar, Test 1, foliar spray on squash, disease control rating at 400 ppm / 100 ppm, read-out: DOWN MDEW.
Assay [5] relates to Cercospora beticola (leaf spot). Briefly: Test 1 greenhouse foliar spray screen, leaf spot on sugar beet. Particulars: Cercospora beticola; Test 1, foliar spray on sugar beet; disease control rating at 400 ppm / 100 ppm.
Assay [6] relates to southern armyworm (Spodopetra eridania Cramer). Briefly: Mite/insect screen, SAW. To be noted: Spodoptera eridania, foliar, read-out: SAW RESULTS %. In a few lines:
(§1)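 Compounds dissolved in acetone/alcohol (50:50) with TOXIMUL R and S emulsifiers, diluted in water to test concentrations, and sprayed to runoff on both leaf surfaces at 10 psi, then dried 1 h. For armyworm, excised treated leaves were offered to larvae; percent mortality scored after standard exposure periods.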

For assay [7], the system named is Septoria tritici (leaf blotch). As to the kind of experiment: Test 1 greenhouse foliar spray screen, leaf blotch on wheat. To be noted: Zymoseptoria tritici; Test 1, foliar spray on wheat; disease control rating at 400 ppm / 100 ppm; read-out: LEAF BLOT.
The test system of assay [8] is Venturia inaequalis (apple scab). As to the kind of experiment: Test 1 greenhouse foliar spray screen, apple scab on apple seedling. To be noted: Venturia inaequalis; Test 1, foliar spray on apple seedling; disease control rating at 400 ppm / 100 ppm; read-out: APPL SCAB.
Assay [9] deals with Botrytis cinerea (gray mold). Briefly: Test 1 greenhouse foliar spray screen, gray mold on grape berries. Particulars: Botrytis cinerea, foliar; Test 1, spray on grape berries; disease control rating at 400 ppm / 100 ppm.
The subject of assay [10] is Puccinia recondita tritici (leaf rust). Briefly: Test 1 greenhouse foliar spray screen, leaf rust on wheat. To be noted: Puccinia recondita, foliar, Test 1, foliar spray on wheat; disease control rating at 400 ppm / 100 ppm.
The subject of assay [11] is melon aphids (Aphis gossypii Glover). As to the kind of experiment: Mite/insect screen, MA. To be noted: Aphis gossypii, foliar, read-out: MA RESULTS %. In a few lines: as §1
The test system of another assay is corn rootworm. As to the kind of experiment: Mite/insect screen, CRW. Particulars: read-out: CRW RESULTS %. In a few lines:
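Compounds dissolved in 50:50 acetone/alcohol with TOXIMUL R and S emulsifiers (23 and 13 g/L), then diluted in water to the stated test concentrations. Percent mortality of corn rootworm scored after standard exposure periods.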

The mark [12] stands for this setting: summary statement in the description.
[13] abbreviates: percent mortality, rate 200 ppm, foliar spray on squash.
[14] abbreviates: percent mortality, CRW rate 12.00 ppm.
[15] abbreviates: percent mortality, rate 400 ppm, foliar spray on squash.
Setting [16] is: percent mortality, CRW rate 24.00 ppm.

Read-outs that look alike come from different tables or passages of the source.

Turning to `Fc1cccc2c(OCCc3cccc(C(F)(F)F)c3)ccnc12` [Example 203, 8-fluoro-4-[2-(3-(trifluoromethyl)phenyl)ethoxy]quinoline], the pest or weed control at 400 ppm in assay [1] was in the range of 90 to 100%; in assay [2] it was 20 to 89%; in assay [4] it was 90 to 100%; in assay [5], 20 to 89%; in assay [7], 90 to 100%; in assay [8] it was 20 to 89%. The values for the pest or weed control at 400 ppm in assay [9] and in [10] were 0 to 19% and 90 to 100%, respectively. In addition, the “activity against rice blast” value in assay [1] (setting [12]) is “particularly excellent activity”. In addition, the values for the mortality at 200 ppm in assay [3], in assay [6] and in assay [11] were 0%, 10% and 100%, respectively. For the same compound, the mortality at 400 ppm in assay [3] came to 0%; in assay [6], 0%; in assay [11], 90%. The activity as miticides entry in assay [3] is given as “particularly excellent activity”. The “activity against downy mildew” value in assay [4] (setting [12]) is given as “particularly excellent activity”. In addition, the mortality at 12 ppm in the assay with corn rootworm is 0%. Also, the mortality at 24 ppm in the assay with corn rootworm worked out at 0%.

As for `Clc1cccc2c(OCCc3ccccc3)ccnc12` [Example 207, 8-chloro-4-(2-phenylethoxy)quinoline], the pest or weed control at 400 ppm in assay [1] lay in the range of 90 to 100%; in [2], 90 to 100%; in assay [4], 90 to 100%; in assay [5] it was 20 to 89%; in assay [7] it was 90 to 100%; in [8], 20 to 89%. In addition, the results for the pest or weed control at 400 ppm in [9] and in assay [10] were 0 to 19% and 90 to 100%, respectively. Further, the mortality at 200 ppm in [3] (setting [13]), in [6] (setting [13]) and in assay [11] (setting [13]) was 0% throughout. In the assay with corn rootworm (setting [14]), the mortality at 12 ppm is 0%.

On to `c1ccc(CCOc2ccnc3ccccc23)cc1` [Example 208, 4-(2-phenylethoxy)quinoline], for which the pest or weed control at 400 ppm in assay [1] was 90 to 100%; in assay [2], 90 to 100%; in assay [4], 90 to 100%; in assay [5], 20 to 89%; in assay [7] it was 20 to 89%; in [8], 0 to 19%. In addition, the pest or weed control at 400 ppm in assay [9] was 0 to 19%; in assay [10], 90 to 100%. The results for the mortality at 200 ppm in assay [3] (setting [13]), in assay [6] (setting [13]) and in [11] (setting [13]) were 10%, 0% and 10%, respectively. Further, the mortality at 12 ppm in the assay on corn rootworm (setting [14]) amounted to 0%.

On to `Clc1ccc(CCOc2ccnc3ccccc23)cc1` [Example 211, 4-[2-(4-chlorophenyl)ethoxy]quinoline], for which the pest or weed control at 400 ppm was in the range of 90 to 100% in assay [1]; 90 to 100% in [2]; 90 to 100% in assay [4]; 90 to 100% in assay [5]; 90 to 100% in assay [7]; 0 to 19% in [8]. The pest or weed control at 400 ppm in assay [9] lay in the range of 0 to 19%; in assay [10], 90 to 100%. Further, the mortality at 200 ppm was found to be 10% in assay [3] (setting [13]), 0% in assay [6] (setting [13]) and 40% in [11] (setting [13]). Besides, the mortality at 12 ppm in the assay with corn rootworm (setting [14]) was determined as 0%.

As for `CC(Cc1ccccc1)Oc1ccnc2ccccc12` (stereo not drawn) [Example 213, 4-(1-methyl-2-phenylethoxy)quinoline], the pest or weed control at 400 ppm in assay [1] is 90 to 100%; in assay [2], 20 to 89%; in assay [4], 90 to 100%; in assay [5] it was 0 to 19%; in [7] it was 20 to 89%; in assay [8], 20 to 89%. The pest or weed control at 400 ppm in [9] fell in the range of 0 to 19%; in assay [10], 90 to 100%. The mortality at 200 ppm in assay [3] (setting [13]), in assay [6] (setting [13]) and in assay [11] (setting [13]) was 0% each time. Further, in the assay with corn rootworm (setting [14]), the mortality at 12 ppm was found to be 0%.

With `CC(COc1ccnc2c(F)cccc12)c1ccccc1` (stereo not drawn) [Example 220, 4-(2-phenylpropoxy)-8-fluoroquinoline], the pest or weed control at 400 ppm in assay [1] lay in the range of 20 to 89%; in assay [2] it was 90 to 100%; in assay [4] it was 90 to 100%; in assay [5] it was 0 to 19%; in assay [7], 0 to 19%; in assay [8], 20 to 89%. Also, the pest or weed control at 400 ppm in [9] was in the range of 0 to 19%; in assay [10] it was 90 to 100%. For the same compound, the mortality at 200 ppm in assay [3] (setting [13]), in assay [6] (setting [13]) and in assay [11] (setting [13]) was 0% throughout. The mortality at 400 ppm in [3] (setting [15]), in assay [6] (setting [15]) and in assay [11] (setting [15]) was 0% in each case. For the same compound, in the assay with corn rootworm (setting [14]), the mortality at 12 ppm came to 0%. Further, the mortality at 24 ppm in the assay with corn rootworm (setting [16]) worked out at 0%.

Consider `Fc1ccc(CCOc2ccnc3c(F)cccc23)cc1` [Example 222, 8-fluoro-4-[2-(4-fluorophenyl)ethoxy]quinoline], for which the pest or weed control at 400 ppm lay in the range of 20 to 89% in [1]; 20 to 89% in assay [2]; 90 to 100% in [4]; 20 to 89% in assay [5]; 90 to 100% in [7]; 90 to 100% in [8]. The pest or weed control at 400 ppm lay in the range of 0 to 19% in assay [9] and 90 to 100% in assay [10]. In addition, the mortality at 200 ppm in assay [3] (setting [13]) amounted to 0%; in assay [6] (setting [13]) it was 0%; in assay [11] (setting [13]), 50%. For the same compound, the mortality at 400 ppm turned out to be 0% in assay [3] (setting [15]), 0% in assay [6] (setting [15]) and 40% in assay [11] (setting [15]). Moreover, the mortality at 12 ppm in the assay on corn rootworm (setting [14]) amounted to 0%. In addition, in the assay with corn rootworm (setting [16]), the mortality at 24 ppm was 0%.

With `COc1ccccc1CCOc1ccnc2ccccc12` [Example 229, 4-[2-(2-methoxyphenyl)ethoxy]quinoline], the pest or weed control at 400 ppm is 90 to 100% in [1]; 20 to 89% in assay [2]; 90 to 100% in assay [4]; 0 to 19% in [5]; 20 to 89% in assay [7]; 0 to 19% in assay [8]. For the same compound, the pest or weed control at 400 ppm in assay [9] lay within 0 to 19%; in assay [10] it was 90 to 100%. The mortality at 200 ppm in [3] (setting [13]) came out at 50%; in [6] (setting [13]), 0%; in assay [11] (setting [13]) it was 50%. The mortality at 400 ppm in [3] (setting [15]), in assay [6] (setting [15]) and in assay [11] (setting [15]) was 0% each time. Besides, the mortality at 12 ppm with corn rootworm (setting [14]) is 0%. Further, in the assay with corn rootworm (setting [16]), the mortality at 24 ppm is 0%.

In the case of `Clc1ccc2c(OCCc3ccc(-c4ccccc4)cc3)ccnc2c1` [Example 230, 7-chloro-4-[2-(1,1'-biphenyl)-4-yl-ethoxy]quinoline], the pest or weed control at 400 ppm was in the range of 0 to 19% in [1]; 90 to 100% in [2]; 0 to 19% in [4]; 0 to 19% in assay [5]; 0 to 19% in assay [7]; 0 to 19% in assay [8]. Also, the pest or weed control at 400 ppm in [9] lay within 0 to 19%; in assay [10], 20 to 89%. In addition, the results for the mortality at 200 ppm in [3] (setting [13]), in assay [6] (setting [13]) and in [11] (setting [13]) were 100%, 0% and 90%, respectively. Moreover, the results for the mortality at 400 ppm in [3] (setting [15]), in assay [6] (setting [15]) and in assay [11] (setting [15]) were 80%, 0% and 0%, respectively. In assay [3], the activity as miticides entry is on record as “particularly excellent activity”. Besides, the mortality at 12 ppm in the assay on corn rootworm (setting [14]) was 0%. Moreover, the mortality at 24 ppm in the assay with corn rootworm (setting [16]) was found to be 0%.

The values above are taken from EP0326331B1, “Substituted quinolines and cinnolines” (Dow AgroSciences LLC, priority 1988, dated 1989).
